In patent US11655235B2, “Pyrrolidine and piperidine compounds” (YUHAN CORPORATION, priority 2019, dated 2023):

What was measured:
Format in all cases: biochemical
recombinant human DPP9 = molecular target: T1, recombinant human DPP9 (Homo sapiens, UniProt Q86TI2); assay: DPP9 inhibition, fluorogenic substrate H-Gly-Pro-AMC; settings: recombinant human DPP9
T1 construct: purchased R&D Systems
Procedure: (§1) The compounds according to the present technology were evaluated in terms of the inhibitory effect on the activity of dipeptidyl peptidases including FAP by using a substrate producing fluorescent substances upon enzymatic decomposition. The test was conducted at 25° C. to get a final reaction volume of 100 μL in a 96 black well plate. […] Briefly, the test compounds were dissolved in dimethyl sulfoxide (DMSO) at a concentration of 20 mM and then subjected to serial dilution, thereby creating an 8 point curve. As for the control group, a 6 point curve created by serial dilution of Talabostat in the same buffer solution was used. Fluorescence intensity was measured using a microplate reader (Flexstation3, Molecular Devices) under the wavelength condition exciting at 380 nm and reading the emission at 460 nm. The inhibitory effect of the test compounds was measured as a decrease (%) in the signal rate as compared to the control group without any inhibitor. Data was fixed to a logistic model with four variables and IC50 value was calculated using GraphPad Prism program. As for recombinant human DPP4 (R&D Systems), 25 mM tris (pH 8.0) buffer as a buffer solution and H-Gly-Pro-AMC (Bachem) as a substrate were used. As for recombinant human DPP7 (R&D Systems), 25 mM MES (pH 6.0) buffer as a buffer solution and Lys-Pro-AMC (Bachem) as a substrate were used. As for recombinant human DPP8 (PBS Bioscience), as a buffer solution, a 10 mM tris (pH 7.4) buffer comprising 10 mM of magnesium chloride and 0.05% of Tween 20, and Z-Ala-Pro-AMC (BPS Bioscience) as a substrate were used. As for recombinant human DPP9 (R&D Systems), a 25 mM tris (pH 8.0) buffer as a buffer solution and H-Gly-Pro-AMC (Bachem) as a substrate were used. As for recombinant human PREP (R&D System), as a buffer solution, a 25 mM tris (pH 7.5) buffer comprising 250 mM sodium chloride and 2.5 mM DTT (Dithiolthreitol), and Z-Gly-Pro-AMC (Bachem) as a substrate were used. The evaluation was made by using 10 ng of DPP4, PDD7, and PREP, 20 ng of DPP8, and 50 ng of DPP9 based on the final reaction. In the evaluation of DPP4, the test compounds were subjected to serial dilution in a buffer under the condition containing up to 0.1% of DMSO. In the evaluation of DPP7, DPP8, DPP9, and PREP, the test compounds were subjected to serial dilution in each buffer under the condition containing up to 0.5% of DMSO.

Recombinant human FAP = molecular target: T2, Recombinant human FAP (Homo sapiens, UniProt Q12884); assay: FAP FRET assay, FGF21-sequence FRET peptide substrate; settings: FRET peptide with human FGF21 sequence, 6 μM, 37° C.
T2 construct: purchased R&D systems
T2 sequence (Q12884 1-760): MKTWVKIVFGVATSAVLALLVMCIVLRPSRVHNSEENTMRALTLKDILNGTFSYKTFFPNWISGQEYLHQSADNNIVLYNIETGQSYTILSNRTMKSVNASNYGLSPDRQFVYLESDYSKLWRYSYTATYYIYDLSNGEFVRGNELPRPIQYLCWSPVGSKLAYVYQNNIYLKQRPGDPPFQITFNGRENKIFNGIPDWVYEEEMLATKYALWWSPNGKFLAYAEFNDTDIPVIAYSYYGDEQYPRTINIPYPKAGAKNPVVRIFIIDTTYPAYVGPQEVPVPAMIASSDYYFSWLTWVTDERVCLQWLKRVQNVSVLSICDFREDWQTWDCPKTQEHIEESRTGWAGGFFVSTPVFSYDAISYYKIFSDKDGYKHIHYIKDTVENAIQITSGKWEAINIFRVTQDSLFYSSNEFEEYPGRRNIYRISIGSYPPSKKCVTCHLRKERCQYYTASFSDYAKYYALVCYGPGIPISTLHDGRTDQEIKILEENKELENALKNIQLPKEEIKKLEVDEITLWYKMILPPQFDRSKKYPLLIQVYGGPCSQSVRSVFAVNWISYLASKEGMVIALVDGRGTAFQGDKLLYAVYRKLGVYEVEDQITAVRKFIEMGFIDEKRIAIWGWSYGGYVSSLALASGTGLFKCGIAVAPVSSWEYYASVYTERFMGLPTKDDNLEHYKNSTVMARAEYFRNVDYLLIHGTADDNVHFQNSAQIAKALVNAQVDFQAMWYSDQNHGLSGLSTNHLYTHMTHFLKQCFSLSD
Summary of the method: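 FRET peptide bearing human FGF21 sequence (6 μM final) cleaved by 10 ng recombinant human FAP at 37° C in HEPES pH 7.2 buffer with NaCl, BSA and EDTA, DMSO up to 0.1%. Signal-rate decrease versus uninhibited control fitted to a four-variable logistic model for IC50.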

recombinant human DPP7 = molecular target: T3, recombinant human DPP7 (Homo sapiens, UniProt Q9UHL4); assay: DPP7 inhibition, fluorogenic substrate Lys-Pro-AMC; settings: recombinant human DPP7
T3 construct: purchased R&D Systems
Summary of the method: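 Inhibitors are titrated in an 8-point series into the enzyme's assay buffer (DMSO no more than 0.5%). Substrate cleavage at 25 °C is followed by fluorescence, excitation 380 nm and emission 460 nm. IC50 values come from a four-variable logistic model.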

recombinant human PREP = molecular target: T4, recombinant human PREP (Homo sapiens, UniProt P48147); assay: PREP inhibition, fluorogenic substrate Z-Gly-Pro-AMC; settings: Inhibitory Activity (IC50, nM) PREP, recombinant human PREP
T4 construct: purchased R&D System
T4 sequence (P48147 1-710): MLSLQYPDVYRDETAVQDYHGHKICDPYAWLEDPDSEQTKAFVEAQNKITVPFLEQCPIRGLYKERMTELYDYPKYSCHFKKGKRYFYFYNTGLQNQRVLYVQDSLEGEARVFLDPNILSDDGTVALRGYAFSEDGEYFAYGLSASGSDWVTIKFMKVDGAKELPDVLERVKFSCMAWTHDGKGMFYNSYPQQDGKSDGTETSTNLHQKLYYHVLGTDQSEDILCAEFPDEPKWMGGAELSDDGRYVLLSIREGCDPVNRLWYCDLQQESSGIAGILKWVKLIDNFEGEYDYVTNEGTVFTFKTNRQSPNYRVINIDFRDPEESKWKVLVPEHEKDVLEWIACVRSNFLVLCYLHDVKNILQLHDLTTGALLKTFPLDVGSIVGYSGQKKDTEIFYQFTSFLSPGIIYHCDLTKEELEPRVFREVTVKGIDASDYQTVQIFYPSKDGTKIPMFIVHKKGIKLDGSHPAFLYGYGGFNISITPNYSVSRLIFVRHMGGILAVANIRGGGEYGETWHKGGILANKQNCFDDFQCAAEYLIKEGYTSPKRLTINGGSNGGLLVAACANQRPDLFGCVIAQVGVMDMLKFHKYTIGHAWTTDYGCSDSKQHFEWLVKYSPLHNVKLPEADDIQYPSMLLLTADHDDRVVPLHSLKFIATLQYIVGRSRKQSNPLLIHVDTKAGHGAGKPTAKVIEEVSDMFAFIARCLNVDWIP
Procedure: as §1

DPP4 = DPP4 (Homo sapiens, UniProt P27487); assay: DPP4 inhibition, fluorogenic substrate H-Gly-Pro-AMC; design: purchased R&D Systems; settings: recombinant human DPP4
Chain of DPP4 (P27487 whole entry): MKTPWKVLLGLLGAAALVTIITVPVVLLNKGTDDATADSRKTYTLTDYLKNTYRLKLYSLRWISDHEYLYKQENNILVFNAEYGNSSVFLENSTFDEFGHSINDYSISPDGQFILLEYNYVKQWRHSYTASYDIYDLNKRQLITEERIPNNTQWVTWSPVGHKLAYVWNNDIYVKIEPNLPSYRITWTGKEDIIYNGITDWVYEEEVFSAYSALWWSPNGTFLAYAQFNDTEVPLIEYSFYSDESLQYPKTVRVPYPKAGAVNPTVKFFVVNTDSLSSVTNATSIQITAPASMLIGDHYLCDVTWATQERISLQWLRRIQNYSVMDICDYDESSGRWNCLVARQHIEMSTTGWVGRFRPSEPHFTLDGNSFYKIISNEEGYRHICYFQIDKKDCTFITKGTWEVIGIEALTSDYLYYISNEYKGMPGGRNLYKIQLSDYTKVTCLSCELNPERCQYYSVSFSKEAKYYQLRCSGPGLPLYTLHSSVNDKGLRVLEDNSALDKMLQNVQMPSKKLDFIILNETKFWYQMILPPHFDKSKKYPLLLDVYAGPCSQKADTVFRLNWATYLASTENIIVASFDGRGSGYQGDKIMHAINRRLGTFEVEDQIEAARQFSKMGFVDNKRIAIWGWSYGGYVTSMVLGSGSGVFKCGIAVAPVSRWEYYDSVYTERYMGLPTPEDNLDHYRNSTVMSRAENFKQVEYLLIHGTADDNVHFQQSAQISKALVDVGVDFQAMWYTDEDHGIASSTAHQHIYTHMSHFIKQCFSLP

T1 sequence (Q86TI2 whole entry): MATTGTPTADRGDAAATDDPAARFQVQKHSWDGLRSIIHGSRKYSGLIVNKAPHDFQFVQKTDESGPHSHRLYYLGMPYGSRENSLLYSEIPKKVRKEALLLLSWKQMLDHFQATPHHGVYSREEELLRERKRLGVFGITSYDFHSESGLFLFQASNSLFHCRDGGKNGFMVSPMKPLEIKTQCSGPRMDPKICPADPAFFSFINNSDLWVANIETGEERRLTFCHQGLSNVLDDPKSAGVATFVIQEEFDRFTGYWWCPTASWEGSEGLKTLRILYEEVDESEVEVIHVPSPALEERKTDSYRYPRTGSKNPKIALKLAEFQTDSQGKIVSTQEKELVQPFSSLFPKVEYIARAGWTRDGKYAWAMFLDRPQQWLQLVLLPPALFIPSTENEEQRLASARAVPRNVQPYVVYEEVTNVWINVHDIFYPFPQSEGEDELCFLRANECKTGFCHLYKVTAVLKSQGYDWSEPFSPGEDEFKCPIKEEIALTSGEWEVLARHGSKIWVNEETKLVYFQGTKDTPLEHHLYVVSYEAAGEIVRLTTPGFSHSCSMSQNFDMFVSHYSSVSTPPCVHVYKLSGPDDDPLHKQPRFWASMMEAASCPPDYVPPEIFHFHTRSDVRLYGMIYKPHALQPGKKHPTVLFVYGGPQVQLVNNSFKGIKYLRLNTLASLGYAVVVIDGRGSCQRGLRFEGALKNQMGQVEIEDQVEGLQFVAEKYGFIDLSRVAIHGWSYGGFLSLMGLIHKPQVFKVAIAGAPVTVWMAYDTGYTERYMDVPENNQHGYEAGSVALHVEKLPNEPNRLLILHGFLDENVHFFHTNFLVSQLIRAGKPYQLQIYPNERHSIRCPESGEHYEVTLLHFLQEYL

Compound | IC50 (recombinant human DPP9) | IC50 (Recombinant human FAP) | IC50 (recombinant human DPP7) | IC50 (recombinant human PREP) | IC50 (DPP4)
CN(Cc1ccccc1)C(=O)c1ccc(N[C@H]2CCN(CC(=O)N3C[C@@H](F)C[C@H]3C#N)C2)c2cccnc12 [Example 285, N-benzyl-N-methyl-5-[[(3S)-1-[2-oxo-2-[(2S,4S)-2-cyano-4-fluoro-pyrrolidin-1-yl]ethyl]pyrrolidin-3-yl]amino]quinoline-8-carboxamide] | 1080 nM | 3.9 nM | 333 nM | 2450 nM | 2500 nM
CN(c1ccc(OC(F)(F)F)c2ncccc12)[C@H]1CCN(CC(=O)N2C[C@@H](F)C[C@H]2C#N)C1 [Example 160, (2S,4S)-4-fluoro-1-[2-[(3S)-3-[methyl-[8-(trifluoromethoxy)-5-quinolyl]amino]pyrrolidin-1-yl]acetyl]pyrrolidine-2-carbonitrile] | 2820 nM | 4.9 nM | 77.8 nM | 1080 nM | 1780 nM
N#C[C@@H]1C[C@H](F)CN1C(=O)CN1CC[C@H](Nc2ccc(O)c3ncccc23)C1 [Example 276, (2S,4S)-4-fluoro-1-[2-[(3S)-3-[(8-hydroxy-5-quinolyl)amino]pyrrolidin-1-yl]acetyl]pyrrolidine-2-carbonitrile] | 5330 nM | 14 nM | 3490 nM | 3030 nM | 977 nM
N#C[C@@H]1C[C@H](F)CN1C(=O)CN1CCC(Nc2ccc(C(=O)Nc3ccccc3)c3ncccc23)CC1 [Example 394, 5-[[1-[2-oxo-2-[(2S,4S)-2-cyano-4-fluoro-pyrrolidin-1-yl]ethyl]-4-piperidyl]amino]-N-phenyl-quinoline-8-carboxamide] | 1090 nM | 1.3 nM | 361 nM | 421 nM | 2540 nM
COc1cnc2cccc(N[C@@H]3CCN(CC(=O)N4CCC[C@H]4C#N)C3)c2c1 [Example 204, (2S)-1-[2-[(3R)-3-[(3-methoxy-5-quinolyl)amino]pyrrolidin-1-yl]acetyl]pyrrolidine-2-carbonitrile] | 16200 nM | 2.1 nM | 3870 nM | 11500 nM | 6200 nM
Cc1cccc2c(N[C@@H]3CCN(CC(=O)N4C[C@@H](F)C[C@H]4C#N)C3)ccnc12 [Example 190, (2S,4S)-4-fluoro-1-[2-[(3R)-3-[(8-methyl-4-quinolyl)amino]pyrrolidin-1-yl]acetyl]pyrrolidine-2-carbonitrile] | 1390 nM | 16.7 nM | 63.7 nM | 1250 nM | 12500 nM
COc1ccnc2ccc(N[C@@H]3CCN(CC(=O)N4C[C@@H](F)C[C@H]4C#N)C3)cc12 [Example 212, (2S,4S)-4-fluoro-1-[2-[(3R)-3-[(4-methoxy-6-quinolyl)amino]pyrrolidin-1-yl]acetyl]pyrrolidine-2-carbonitrile] | 1160 nM | 8 nM | 206 nM | 5230 nM | 1960 nM
Cc1cnc2ccc(N[C@@H]3CCN(CC(=O)N4C[C@@H](F)C[C@H]4C#N)C3)cc2c1 [Example 211, (2S,4S)-4-fluoro-1-[2-[(3R)-3-[(3-methyl-6-quinolyl)amino]pyrrolidin-1-yl]acetyl]pyrrolidine-2-carbonitrile] | 657 nM | 5.2 nM | 369 nM | 2740 nM | 1800 nM
N#C[C@@H]1C[C@H](F)CN1C(=O)CN1CC[C@H](Nc2cc(F)c3ncccc3c2)C1 [Example 278, (2S,4S)-4-fluoro-1-[2-[(3S)-3-[(8-fluoro-6-quinolyl)amino]pyrrolidin-1-yl]acetyl]pyrrolidine-2-carbonitrile] | 593 nM | 3.5 nM | 615 nM | 1280 nM | 610 nM
CCN(c1cnc2ccccc2c1)C1CCN(CC(=O)N2C[C@@H](F)C[C@H]2C#N)CC1 [Example 304, (2S,4S)-1-[2-[4-[ethyl(3-quinolyl)amino]-1-piperidyl]acetyl]-4-fluoro-pyrrolidine-2-carbonitrile] | 7600 nM | 8 nM | 1050 nM | 117 nM | 18800 nM
Cc1ccc2ncccc2c1N[C@@H]1CCN(CC(=O)N2C[C@@H](F)C[C@H]2C#N)C1 [Example 180, (2S,4S)-4-fluoro-1-[2-[(3R)-3-[(6-methyl-5-quinolyl)amino]pyrrolidin-1-yl]acetyl]pyrrolidine-2-carbonitrile] | 3180 nM | 6.2 nM | 6790 nM | 1560 nM | 1020 nM
CCOc1ccc(N[C@H]2CCN(CC(=O)N3C[C@@H](F)C[C@H]3C#N)C2)c2cccnc12 [Example 275, (2S,4S)-4-fluoro-1-[2-[(3S)-3-[(8-ethoxy-5-quinolyl)amino]pyrrolidin-1-yl]acetyl]pyrrolidine-2-carbonitrile] | 1590 nM | 1.7 nM | 90.4 nM | 6120 nM | 1430 nM
CCN(c1cnc2ccccc2c1)C1CCN(CC(=O)N2CCC[C@H]2C#N)CC1 [Example 302, (2S)-1-[2-[4-[ethyl(3-quinolyl)amino]-1-piperidyl]acetyl]pyrrolidine-2-carbonitrile] | ≥ 100000 nM | 22.2 nM | 7350 nM | 350 nM | ≥ 100000 nM
